In patent US12421225B2, “Heteroaromatic amide derivative and medicament containing the same” (KAKEN PHARMACEUTICAL CO., LTD., priority 2018, dated 2025):

These molecules were tested against human Nav1.7 (Homo sapiens (Human), UniProt Q15858) (assay: Human Nav1.7 inhibitory activity evaluation (automated patch clamp QPatch16X, HEK293A cells stably expressing human Nav1.7 and human Navβ1)). Details: human Nav1.7, automated patch clamp.
Format: cell-based
In short: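 IC50 calculated from the concentration-response of inward current evoked by the second −10 mV, 50 ms depolarisation, which follows a 15 s conditioning step at roughly 30-40% inactivation and a 100 ms −120 mV interval. Cells: HEK293A expressing human Nav1.7/Navβ1, automated patch clamp, room temperature, 0.1% DMSO final.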

Sequence of human Nav1.7 (Q15858 whole entry): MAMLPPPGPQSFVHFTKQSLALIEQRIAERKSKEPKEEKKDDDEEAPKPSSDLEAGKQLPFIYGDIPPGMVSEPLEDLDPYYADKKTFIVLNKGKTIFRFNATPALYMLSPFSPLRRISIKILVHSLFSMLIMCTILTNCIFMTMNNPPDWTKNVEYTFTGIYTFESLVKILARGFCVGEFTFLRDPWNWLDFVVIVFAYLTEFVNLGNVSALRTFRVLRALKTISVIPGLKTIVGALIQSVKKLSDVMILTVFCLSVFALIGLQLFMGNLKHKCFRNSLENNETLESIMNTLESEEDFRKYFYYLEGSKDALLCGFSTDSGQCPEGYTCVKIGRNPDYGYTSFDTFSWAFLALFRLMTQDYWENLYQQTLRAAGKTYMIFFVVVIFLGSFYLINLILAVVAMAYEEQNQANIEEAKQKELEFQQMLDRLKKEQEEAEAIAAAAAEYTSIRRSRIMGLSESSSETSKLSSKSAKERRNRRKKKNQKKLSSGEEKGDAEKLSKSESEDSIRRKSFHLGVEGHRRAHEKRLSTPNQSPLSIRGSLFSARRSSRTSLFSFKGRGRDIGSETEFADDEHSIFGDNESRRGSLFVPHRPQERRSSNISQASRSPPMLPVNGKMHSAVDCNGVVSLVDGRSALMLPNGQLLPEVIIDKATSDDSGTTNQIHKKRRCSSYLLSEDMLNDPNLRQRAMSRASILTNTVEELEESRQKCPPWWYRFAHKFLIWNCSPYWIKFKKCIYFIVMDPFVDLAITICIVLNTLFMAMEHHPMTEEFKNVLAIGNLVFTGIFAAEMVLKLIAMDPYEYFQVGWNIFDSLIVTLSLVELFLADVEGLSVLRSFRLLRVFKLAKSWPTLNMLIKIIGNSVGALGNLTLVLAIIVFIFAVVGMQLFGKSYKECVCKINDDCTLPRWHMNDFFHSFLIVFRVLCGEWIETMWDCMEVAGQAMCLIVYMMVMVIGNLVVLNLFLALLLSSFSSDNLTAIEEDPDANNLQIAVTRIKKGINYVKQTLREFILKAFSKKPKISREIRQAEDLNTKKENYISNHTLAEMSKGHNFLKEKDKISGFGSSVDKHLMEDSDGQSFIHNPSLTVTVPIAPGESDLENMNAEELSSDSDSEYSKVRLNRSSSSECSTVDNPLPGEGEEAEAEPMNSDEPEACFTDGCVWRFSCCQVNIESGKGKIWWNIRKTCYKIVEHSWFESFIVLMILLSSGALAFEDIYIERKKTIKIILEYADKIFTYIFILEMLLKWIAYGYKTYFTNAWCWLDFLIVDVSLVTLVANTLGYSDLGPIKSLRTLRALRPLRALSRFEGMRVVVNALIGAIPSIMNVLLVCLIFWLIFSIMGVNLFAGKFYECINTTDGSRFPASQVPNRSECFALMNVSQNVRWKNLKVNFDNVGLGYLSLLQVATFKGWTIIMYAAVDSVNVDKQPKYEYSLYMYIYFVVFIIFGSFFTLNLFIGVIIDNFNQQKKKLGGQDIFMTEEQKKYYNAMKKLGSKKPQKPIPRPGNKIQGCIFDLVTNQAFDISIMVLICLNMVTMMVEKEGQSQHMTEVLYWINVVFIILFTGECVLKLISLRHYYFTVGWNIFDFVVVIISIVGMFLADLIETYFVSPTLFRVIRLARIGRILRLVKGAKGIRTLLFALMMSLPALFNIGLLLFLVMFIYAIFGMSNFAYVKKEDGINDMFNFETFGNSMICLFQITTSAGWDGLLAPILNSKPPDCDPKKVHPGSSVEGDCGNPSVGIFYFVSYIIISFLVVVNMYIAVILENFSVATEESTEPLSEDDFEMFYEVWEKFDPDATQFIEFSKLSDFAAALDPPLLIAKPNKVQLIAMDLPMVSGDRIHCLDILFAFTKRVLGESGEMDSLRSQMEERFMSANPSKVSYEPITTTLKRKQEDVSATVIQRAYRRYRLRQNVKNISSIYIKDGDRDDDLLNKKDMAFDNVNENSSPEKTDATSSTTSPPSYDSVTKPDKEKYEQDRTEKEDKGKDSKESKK
Sequence of human Nav1.7 (Q07699 19-218 partner): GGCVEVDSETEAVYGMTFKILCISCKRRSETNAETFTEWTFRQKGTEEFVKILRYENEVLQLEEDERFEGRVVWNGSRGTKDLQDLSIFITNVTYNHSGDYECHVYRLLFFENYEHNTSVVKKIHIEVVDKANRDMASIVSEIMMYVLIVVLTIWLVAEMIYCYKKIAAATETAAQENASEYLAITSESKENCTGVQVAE

Structure (SMILES) | IC50
O=C(N[C@H]1COc2ccc(C(F)(F)F)cc2C1F)c1cc2n(n1)CCN(CCOC1CCC1)C2 (stereo partly drawn) [Example 625] | < 1 µM
O=C(NC1COc2ccc(F)c(F)c2C1)c1cc2n(n1)CCC(C(F)(F)F)O2 (stereo not drawn) [Example 626] | < 10 µM
O=C(NC1COc2ccc(F)c(F)c2C1)c1cc2n(n1)CCC(COCC(F)(F)F)O2 (stereo not drawn) [Example 627] | < 10 µM
O=C(NC1COc2ccc(F)c(F)c2C1)c1cc2n(n1)CC(CCCOCC(F)(F)F)O2 (stereo not drawn) [Example 628] | < 1 µM
O=C(NC1COc2ccc(F)c(F)c2C1)c1cc2n(n1)CC(CCOCC(F)(F)F)O2 (stereo not drawn) [Example 629] | < 1 µM
O=C(N[C@H]1COc2ccc(COCC(F)(F)F)cc2C1)c1cc2n(n1)CCC(C1CCOC1)O2 (stereo partly drawn) [Example 630] | < 1 µM
O=C(N[C@H]1COc2ccc(COCC(F)(F)F)cc2C1)c1cc2n(n1)CCC(C1COCCO1)O2 (stereo partly drawn) [Example 631] | < 1 µM
O=C(N[C@H]1COc2ccc(COCC(F)(F)F)cc2C1)c1cc2n(n1)CCC(C(F)(F)F)CO2 (stereo partly drawn) [Example 632] | < 1 µM
O=C(N[C@H]1COc2ccc(CC(F)F)cc2C1)c1cc2n(n1)CCC(C(F)(F)F)CO2 (stereo partly drawn) [Example 633] | < 1 µM
O=C(N[C@H]1COc2ccc(C(F)(F)F)cc2C1F)c1cc2n(n1)CCC(COCC(F)(F)F)CO2 (stereo partly drawn) [Example 634] | < 1 µM
O=C(N[C@H]1COc2ccc(COCC(F)(F)F)cc2C1)c1cc2n(n1)CCC(COCC(F)F)O2 (stereo partly drawn) [Example 635] | < 1 µM
O=C(N[C@H]1COc2ccc(C(F)(F)F)cc2C1F)c1cc2n(n1)CCN(C1CCOCC1)C2 (stereo partly drawn) [Example 637] | < 10 µM
O=C(N[C@H]1COc2ccc(COCC(F)(F)F)cc2C1)c1cc2n(n1)CCC(C1COCCO1)O2 (stereo partly drawn) [Example 638] | < 10 µM
O=C(NC1COc2ccc(F)c(F)c2C1)c1cc2n(n1)CC(CCOCC1CC1)O2 (stereo not drawn) [Example 639] | < 1 µM
O=C(NC1COc2ccc(F)c(F)c2C1)c1cc2n(n1)CC(CCCOCC(F)F)O2 (stereo not drawn) [Example 640] | < 1 µM
O=C(N[C@H]1COc2ccc(C(F)(F)F)cc2C1F)c1cc2n(n1)CCN(CC1CCOCC1)C2 (stereo partly drawn) [Example 642] | < 10 µM
O=C(N[C@H]1COc2ccc(C(F)(F)F)cc2C1F)c1cc2n(n1)CCN(C1COC1)C2 (stereo partly drawn) [Example 643] | < 10 µM
O=C(N[C@H]1COc2ccc(C(F)(F)F)cc2C1)c1cc2n(n1)CCN(CCOCC(F)(F)F)C2 [Example 644] | < 1 µM
O=C(N[C@H]1COc2ccc(C(F)(F)F)cc2C1F)c1cc2n(n1)CCN(CCOCC(F)(F)F)C2 (stereo partly drawn) [Example 645] | < 1 µM
O=C(N[C@H]1COc2ccc(C(F)(F)F)cc2C1F)c1cc2n(n1)CCN(CC1CCO1)C2 (stereo partly drawn) [Example 646] | < 1 µM
O=C(N[C@H]1COc2ccc(C(F)(F)F)cc2C1F)c1cc2n(n1)CCN(CCC(F)(F)F)C2 (stereo partly drawn) [Example 647] | < 1 µM
N#Cc1ccc2c(c1)C(F)[C@@H](NC(=O)c1cc3n(n1)CCC(C(F)(F)F)O3)CO2 (stereo partly drawn) [Example 648] | < 10 µM
N#Cc1ccc2c(c1)C(F)[C@@H](NC(=O)c1cc3n(n1)CCC(C(F)(F)F)CO3)CO2 (stereo partly drawn) [Example 649] | < 10 µM
N#Cc1ccc2c(c1)C(F)[C@@H](NC(=O)c1cc3n(n1)CC(CCOCC1CC1)O3)CO2 (stereo partly drawn) [Example 650] | < 1 µM
O=C(N[C@H]1COc2ccc(COCC(F)(F)F)cc2C1)c1cc2n(n1)CCC(C1CCCO1)O2 (stereo partly drawn) [Example 651] | < 1 µM
O=C(N[C@H]1COc2ccc(C(F)(F)F)cc2C1O)c1cc2n(n1)CCN(CCOCC1CC1)C2 (stereo partly drawn) [Example 652] | < 10 µM
O=C(N[C@H]1COc2ccc(C(F)(F)F)cc2C1)c1cc2n(n1)CCN(CC1CCOCC1)C2 [Example 653] | < 10 µM

Structure (SMILES) | IC50
O=C(N[C@H]1COc2ccc(C(F)(F)F)cc2C1F)c1cc2n(n1)CCN(CCOCC1CC1)C2 (stereo partly drawn) [Example 654] | < 1 µM
O=C(N[C@H]1COc2ccc(COCC(F)(F)F)cc2C1)c1cc2n(n1)CCC(CC1CCOCC1)O2 (stereo partly drawn) [Example 655] | < 1 µM
CCC1(O)CCn2nc(C(=O)N[C@H]3COc4ccc(C(F)(F)F)cc4C3F)cc2OC1 (stereo partly drawn) [Example 656] | < 10 µM
O=C(N[C@H]1COc2ccc(C(F)(F)F)cc2C1)c1cc2n(n1)CC(COCCOCC(F)(F)F)O2 (stereo partly drawn) [Example 657] | < 1 µM
O=C(N[C@H]1COc2ccc(Cl)cc2C1)c1cc2n(n1)CC(COCCOCC(F)(F)F)O2 (stereo partly drawn) [Example 658] | < 1 µM
N#Cc1ccc2c(c1)C[C@@H](NC(=O)c1cc3n(n1)CC(COCCOCC(F)(F)F)O3)CO2 (stereo partly drawn) [Example 659] | < 10 µM
O=C(N[C@H]1COc2ccc(C(F)(F)F)cc2C1O)c1cc2n(n1)CC(COCCOCC(F)(F)F)O2 (stereo partly drawn) [Example 660] | < 10 µM
O=C(N[C@H]1COc2ccc(COCC(F)(F)F)cc2C1)c1cc2n(n1)CC(COCCOCC(F)(F)F)O2 (stereo partly drawn) [Example 661] | < 1 µM
O=C(N[C@H]1COc2ccc(Cl)cc2C1)c1cc2n(n1)CCC(COCCOCC(F)(F)F)O2 (stereo partly drawn) [Example 662] | < 1 µM
O=C(N[C@H]1COc2ccc(C(F)(F)F)cc2C1)c1cc2n(n1)CCC(COCCOCC(F)(F)F)O2 (stereo partly drawn) [Example 663] | < 1 µM
N#Cc1ccc2c(c1)C[C@@H](NC(=O)c1cc3n(n1)CCC(COCCOCC(F)(F)F)O3)CO2 (stereo partly drawn) [Example 664] | < 10 µM
O=C(N[C@H]1COc2ccc(C(F)(F)F)cc2C1F)c1cc2n(n1)CCC(COCCOCC(F)(F)F)O2 (stereo partly drawn) [Example 665] | < 1 µM
O=C(N[C@H]1COc2ccc(C(F)(F)F)cc2C1)c1cc2n(n1)CCN(CCOCC(F)F)C2 [Example 666] | < 10 µM
O=C(N[C@H]1COc2ccc(COCC(F)(F)F)cc2C1)c1cc2n(n1)CCN(CCOCC(F)(F)F)C2 [Example 667] | < 1 µM
O=C(N[C@H]1COc2ccc(CC(F)F)cc2C1)c1cc2n(n1)CCC(C1CCCO1)O2 (stereo partly drawn) [Example 668] | < 10 µM
O=C(N[C@H]1COc2ccc(C(F)(F)F)cc2C1)c1cc2n(n1)CCN(CC1CCOC1)C2 (stereo partly drawn) [Example 669] | < 10 µM
O=C(N[C@H]1COc2ccc(C(F)(F)F)cc2C1F)c1cc2n(n1)CCN(C1CCOC1)C2 (stereo partly drawn) [Example 670] | < 1 µM
CC(C)OCCN1CCn2nc(C(=O)N[C@H]3COc4ccc(C(F)(F)F)cc4C3F)cc2C1 (stereo partly drawn) [Example 671] | < 1 µM
O=C(N[C@H]1COc2ccc(C(F)(F)F)cc2C1F)c1cc2n(n1)CCN(CC1CCCOC1)C2 (stereo partly drawn) [Example 672] | < 1 µM
O=C(N[C@H]1COc2ccc(C(F)(F)F)cc2C1F)c1cc2n(n1)CCN(CC1CCOC1)C2 (stereo partly drawn) [Example 673] | < 1 µM
O=C(N[C@H]1COc2ccc(CC(F)F)cc2C1)c1cc2n(n1)CCC(CC1CCOCC1)O2 (stereo partly drawn) [Example 674] | < 10 µM
O=C(N[C@H]1COc2ccc(C(F)(F)F)cc2C1F)c1cc2n(n1)CC(COCCOCC(F)(F)F)O2 (stereo partly drawn) [Example 676] | < 1 µM
O=C(N[C@H]1COc2ccc(C(F)(F)F)cc2C1O)c1cc2n(n1)CCN(CCOCC(F)(F)F)C2 (stereo partly drawn) [Example 677] | < 10 µM
O=C(N[C@H]1COc2ccc(C(F)(F)F)cc2C1F)c1cc2n(n1)CCN(CCOCC(F)F)C2 (stereo partly drawn) [Example 678] | < 1 µM
O=C(N[C@H]1COc2ccc(C(F)(F)F)cc2C1F)c1cc2n(n1)CCC(OCC(F)(F)F)CO2 (stereo partly drawn) [Example 679] | < 1 µM
O=C(N[C@H]1COc2ccc(C(F)(F)F)cc2C1)c1cc2n(n1)CCC(OCCOCC(F)(F)F)CO2 (stereo partly drawn) [Example 680] | < 10 µM
O=C(N[C@H]1COc2ccc(Cl)cc2C1)c1cc2n(n1)CCC(OCCOCC(F)(F)F)CO2 (stereo partly drawn) [Example 682] | < 10 µM
